# Measured values from patent publication US8507464B2, “Phosphoramidate alkylator prodrugs” (Threshold Pharmaceuticals, Inc., priority 2005, dated 2013).
# Where two headings read alike, the source gives them in different places.
# Legend:
# [1] = target: CYP1A2 (Homo sapiens, UniProt P05177); assay: in vitro; conditions: pH 7.4, probe phenacetin
# Protocol: A control reaction with no inhibitor was also prepared. After a suitable incubation at 37° C., the reactions were terminated by the addition of […] of 10% formic acid in water ([…] of acetonitrile for 2C19). […] Each assay was performed in duplicate.
# [2] = tested on: H460 lung carcinoma spheroids; assay: Spheroid model, clonogenic survival; conditions: Homo sapiens, NCI-H460, 2 h, read-out: IC90 H460 Spheroid 10% O2
# [3] = tested on: HT29; assay: Anti-proliferation assay, hypoxia vs normoxia (Table 1B); conditions: for IC50: Homo sapiens
# [4] = tested on: H460 cells exposed as monolayers; assay: Clonogenic survival of monolayer cells (Example 35); conditions: Homo sapiens, NCI-H460, 2 h
# [5] = tested on: UV41 cells (XPF); assay: Antiproliferation assay - DNA mutant repair cells; conditions: Cricetulus griseus, 2 h
# [6] = Plasma stability (Table 2B)
# [7] = tested on: DX-5; assay: Anti-proliferation assay, hypoxia vs normoxia (Table 1B)
# [8] = tested on: EM9 cells (XRCC1); assay: Antiproliferation assay - DNA mutant repair cells; conditions: Cricetulus griseus, 2 h
# [9] = tested on: ACHN cells; assay: Antiproliferation assay (Alamar Blue), anoxia vs air; conditions: Homo sapiens, 2 h
# [10] = tested on: MES-SA cells; assay: as above; conditions: Homo sapiens, 2 h
# [11] = tested on: MES-SA/Dx5 cells; assay: as above; conditions: Homo sapiens, MES-SA/Dx5, 2 h
# [12] = tested on: NCI-H460 cells; assay: Antiproliferation assay - oxygen dependence; assay type: cell-based, human; conditions: Homo sapiens
# Excerpt: (§1) . […] The calculated IC50 values (μM) are tabulated in Table Y1 (H460 cells) or Table Y2 (HT29 cells) below.
# [13] = tested on: HT29 cells; assay: Antiproliferation assay (Alamar Blue), anoxia vs air; conditions: Homo sapiens, HT-29, 2 h
# [14] = tested on: HCT116; assay: Anti-proliferation assay, hypoxia vs normoxia (Table 1B); conditions: for IC50: Homo sapiens
# [15] = tested on: IRS1SF cells (XRCC3); assay: Antiproliferation assay - DNA mutant repair cells; conditions: Cricetulus griseus, 2 h
# [16] = tested on: NCI-H460 cells; assay: Antiproliferation assay (Alamar Blue), anoxia vs air; conditions: Homo sapiens, NCI-H460, 2 h
# [17] = tested on: HT29 cells; assay: Antiproliferation assay - oxygen dependence; assay type: cell-based; conditions: Homo sapiens
# Excerpt: as §1
# [18] = tested on: UV135 cells (XPG); assay: Antiproliferation assay - DNA mutant repair cells; conditions: Cricetulus griseus, 2 h
# [19] = in vivo; conditions: for half-life: t ½, mice
# [20] = tested on: UV41; assay: Clonogenic survival - DNA mutant repair cells; conditions: Cricetulus griseus
# [21] = assay type: physicochemical; conditions: glassy carbon, Ag/AgCl reference; for Reduction Potentials, 100 mV/sec: scan rate 100 mV/sec; for Reduction Potentials, 10,000 mV/sec: scan rate 10,000 mV/sec
# [22] = tested on: AA8 cells (wild type); assay: Antiproliferation assay - DNA mutant repair cells; conditions: Cricetulus griseus, CHO-AA8, 2 h
# [23] = tested on: H460 cell line; assay: Anti-proliferation assay, hypoxia vs normoxia (Table 1A); conditions: for IC50: Homo sapiens; for HCR P: ratio of IC50 in normoxia and hypoxia
# [24] = tested on: human H460 cells; assay: Clonogenic survival assay, hypoxia vs normoxia (Table 1A); conditions: for IC90: Homo sapiens
# [25] = HT-29, read-out: HT29 P H (proliferation IC50, hypoxia)
# [26] = HT-29, read-out: HT29 P N (proliferation IC50, normoxic)
# [27] = read-out: IC90 H460 Monolayer Air
# [28] = read-out: IC90 H460 Monolayer N2
# [29] = read-out: DX-5 P H (proliferation IC50, hypoxia)
# [30] = read-out: DX-5 P N (proliferation IC50, normoxic)
# [31] = read-out: IC50 MES-SA/Dx5 Anoxia
# [32] = NCI-H460, read-out: IC50 in H460 cells, 0.1% O2
# [33] = NCI-H460, read-out: IC50 in H460 cells, 0.6% O2
# [34] = NCI-H460, read-out: IC50 in H460 cells, 1% O2
# [35] = NCI-H460, read-out: IC50 in H460 cells, 10% O2
# [36] = NCI-H460, read-out: IC50 in H460 cells, Air
# [37] = NCI-H460, read-out: IC50 in H460 cells, N2
# [38] = HCT-116, read-out: HCT116 P H (proliferation IC50, hypoxia)
# [39] = HCT-116, read-out: HCT116 P N (proliferation IC50, normoxic)
# [40] = read-out: IC50 H460 Air, air, 2 h exposure
# [41] = read-out: IC50 H460 Anoxia, anoxia, 2 h exposure
# [42] = CD-1, Balb/c for Compound 1, mouse, ip
# [43] = CD-1, Balb/c for Compound 1, mouse, iv
# [44] = CD-1, Balb/c for Compound 1, mouse, iv, intravenous administration in mice
# [45] = mouse, ip, intraperitoneal administration in mice
# [46] = NCI-H460, read-out: Hypoxia P (proliferation IC50)
# [47] = NCI-H460, read-out: Normoxia P (proliferation IC50)
# CYP1A2, sequence (P05177 whole entry, species assumed): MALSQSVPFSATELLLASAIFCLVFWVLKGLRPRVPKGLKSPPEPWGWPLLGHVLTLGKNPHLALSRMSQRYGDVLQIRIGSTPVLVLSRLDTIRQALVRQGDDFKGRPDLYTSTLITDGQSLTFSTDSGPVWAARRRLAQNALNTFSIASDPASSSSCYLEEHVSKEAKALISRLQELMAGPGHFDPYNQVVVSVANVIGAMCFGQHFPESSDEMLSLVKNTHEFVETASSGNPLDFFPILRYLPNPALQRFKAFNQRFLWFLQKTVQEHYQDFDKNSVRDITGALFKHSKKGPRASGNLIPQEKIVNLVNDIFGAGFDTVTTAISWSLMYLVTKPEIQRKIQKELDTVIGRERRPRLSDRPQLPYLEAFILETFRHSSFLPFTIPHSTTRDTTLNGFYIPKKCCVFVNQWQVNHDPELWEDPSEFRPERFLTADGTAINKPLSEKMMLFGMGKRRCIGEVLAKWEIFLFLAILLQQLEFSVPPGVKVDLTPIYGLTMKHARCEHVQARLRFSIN
structure (smiles),measurement,setting,value
Cn1c(COP(=O)(NCCBr)NCCBr)cnc1[N+](=O)[O-] [Compound 25],IC50,[1],> 50 µM
same,IC90,[2],15 µM
same,HT29 HCR P,[3],>6
same,IC50,[3]; [25],16 µM
same,IC50,[3]; [26],> 100 µM
same,IC90,[4]; read-out: IC90 H460 Monolayer 0.6% O2,0.6 µM
same,IC90,[4]; [27],20 µM
same,IC90,[4]; [28],0.1 µM
same,IC50,[5]; read-out: IC50 UV41 Air,95 µM
same,IC50,[5]; read-out: IC50 UV41 Anoxia,0.2 µM
same,Plasma stability (at 20 min),[6]; at 20 min,102%
same,DX-5 HCR,[7],>100
same,IC50,[7]; [29],1 µM
same,IC50,[7]; [30],> 100 µM
same,IC50,[8]; read-out: IC50 EM9 Air,> 100 µM
same,IC50,[8]; read-out: IC50 EM9 Anoxia,7 µM
same,IC50,[9]; read-out: IC50 ACHN Air,62 µM
same,IC50,[9]; read-out: IC50 ACHN Anoxia,0.2 µM
same,IC50,[10]; read-out: IC50 MES-SA Air,> 100 µM
same,IC50,[10]; read-out: IC50 MES-SA Anoxia,0.9 µM
same,IC50,[11]; read-out: IC50 MES-SA/Dx5 Air,> 100 µM
same,IC50,[11]; [31],0.3 µM
same,IC50,[12]; [32],1 µM
same,IC50,"[12]; NCI-H460, read-out: IC50 in H460 cells, 0.3% O2",3 µM
same,IC50,[12]; [33],5 µM
same,IC50,[12]; [34],10 µM
same,IC50,[12]; [35],25 µM
same,IC50,[12]; [36],55 µM
same,IC50,[12]; [37],0.1 µM
same,IC50,[13]; read-out: IC50 HT29 Air,> 100 µM
same,IC50,[13]; read-out: IC50 HT29 Anoxia,16 µM
same,HCT116 HCR,[14],>100
same,IC50,[14]; [38],0.9 µM
same,IC50,[14]; [39],> 100 µM
same,IC50,[15]; read-out: IC50 IRS1SF Air,> 100 µM
same,IC50,[15]; read-out: IC50 IRS1SF Anoxia,2 µM
same,IC50,[16]; [40],86 µM
same,IC50,[16]; [41],0.15 µM
same,IC50,"[17]; HT-29, read-out: IC50 in HT29 cells, 0.6% O2",25 µM
same,IC50,"[17]; HT-29, read-out: IC50 in HT29 cells, Air",> 100 µM
same,IC50,"[17]; HT-29, read-out: IC50 in HT29 cells, N2",2 µM
same,IC50,[18]; read-out: IC50 UV135 Air,> 100 µM
same,IC50,[18]; read-out: IC50 UV135 Anoxia,6 µM
same,Cmax,[19]; [42],22900 ng/mL
same,Cmax,[19]; [43],27500 ng/mL
same,half-life,[19]; [44],6.6 min
same,half-life,"[19]; mouse, ip, intraperitoneal administration in mice (min)",11 min
same,half-life,[19]; [45],10.8 min
same,half-life,"[19]; mouse, iv, intravenous administration in mice (min)",6.7 min
same,IC90,[20]; read-out: IC90 UV41 Air,17 µM
same,IC90,[20]; read-out: IC90 UV41 N2,0.02 µM
same,"Reduction Potentials, 100 mV/sec",[21],−594 mV
same,"Reduction Potentials, 10,000 mV/sec",[21],−626 mV
same,IC50,[22]; read-out: IC50 AA8 Air,> 100 µM
same,IC50,[22]; read-out: IC50 AA8 Anoxia,8 µM
same,IC50,[23]; [46],0.05 µM
same,IC50,"[23]; NCI-H460, read-out: IC50 in cells under hypoxia",0.05 µM
same,IC50,[23]; [47],50 µM
same,fold more toxic in hypoxic cells than in normoxic cells,[23]; anti-proliferation cytotoxicity assay,1000 fold
same,HCR P,[23],1000
Cn1c(COP(=O)(NCCCl)NCCCl)cnc1[N+](=O)[O-] [Compound 36],IC90,[2],> 100 µM
same,IC90,"[24]; NCI-H460, read-out: Hypoxia C (clonogenic IC90)",0.2 µM
same,IC90,"[24]; NCI-H460, read-out: Normoxia C (clonogenic IC90)",> 100 µM
same,HCR C,[24]; ratio of IC90 in normoxia and hypoxia,>500
same,HT29 HCR P,[3],>2
same,IC50,[3]; [25],55 µM
same,IC50,"[3]; HT-29, read-out: HT29 P H, value in parentheses",35 µM
same,IC50,[3]; [26],> 100 µM
same,IC90,[4]; [27],100 µM
same,IC90,[4]; [28],1 µM
same,IC50,[5]; read-out: IC50 UV41 Air,20 µM
same,IC50,[5]; read-out: IC50 UV41 Anoxia,0.03 µM
same,Plasma stability (% at 30 min),[6]; 30 min,60%
same,DX-5 HCR,[7],>13
same,IC50,[7]; [29],7.5 µM
same,IC50,[7]; [30],> 100 µM
same,IC50,[8]; read-out: IC50 EM9 Air,> 100 µM
same,IC50,[8]; read-out: IC50 EM9 Anoxia,4 µM
same,IC50,[10]; read-out: IC50 MES-SA Air,> 100 µM
same,IC50,[10]; read-out: IC50 MES-SA Anoxia,5 µM
same,IC50,[11]; read-out: IC50 MES-SA/Dx5 Air,> 100 µM
same,IC50,[11]; [31],7.5 µM
same,IC50,[12]; [32],30 µM
same,IC50,[12]; [33],60 µM
same,IC50,[12]; [34],60 µM
same,IC50,[12]; [35],> 100 µM
same,IC50,[12]; [36],> 100 µM
same,IC50,[12]; [37],1 µM
same,IC50,[13]; read-out: IC50 HT29 Air,> 100 µM
same,IC50,[13]; read-out: IC50 HT29 Anoxia,55 µM
same,HCT116 HCR,[14],>20
same,IC50,[14]; [38],5 µM
same,IC50,[14]; [39],> 100 µM
same,IC50,[15]; read-out: IC50 IRS1SF Air,59 µM
same,IC50,[15]; read-out: IC50 IRS1SF Anoxia,0.3 µM
same,IC50,[16]; [40],> 100 µM
same,IC50,[16]; [41],0.88 µM
same,IC50,[18]; read-out: IC50 UV135 Air,> 100 µM
same,IC50,[18]; read-out: IC50 UV135 Anoxia,2 µM
same,clearance,"[19]; CD-1 (Compounds 5, 23, 36), Balb/c (Compound 1), mouse, iv",77.4 mL/min/kg
same,Cmax,[19]; [42],44000 ng/mL
same,AUC,[19]; [43],10800 ng·h/mL
same,Cmax,[19]; [43],27700 ng/mL
same,Vd,[19]; [43],1.27 L/kg
same,half-life,[19]; [44],14.4 min
same,AUC,"[19]; CD-1, mouse, ip",26100 ng·h/mL
same,half-life,[19]; [45],10.8 min
same,"Reduction Potentials, 100 mV/sec",[21],−609 mV
same,"Reduction Potentials, 10,000 mV/sec",[21],−634 mV
same,IC50,[22]; read-out: IC50 AA8 Air,> 100 µM
same,IC50,[22]; read-out: IC50 AA8 Anoxia,2 µM
same,IC50,[23]; [46],0.88 µM
same,IC50,[23]; [47],> 100 µM
same,HCR P,[23],>110
